Experiment [1] concerns the target periplasmic chaperone PapD (Escherichia coli, UniProt P15319). The experiment in a line: Direct binding assay on BIACORE 3000, immobilized PapD. The note with it: pyridinone 30 uM, 25° C., 30 μL/min, triplicate, Sensor Chip CM5. The protocol:
(§1) The affinity of the following pyridinone: [drawing 73] for periplasmic chaperones PapD and FimC were investigated using a direct binding assay on BIACORE 3000. Methods
(§2) PapD (50 μg/ML in 10 mM NaAc pH 5.5) and FimC (50 μg/mL in 10 mM NaAc pH 5.5) were mobilized on Sensor Chi CM5 using standard thiol coupling procedure. This procedure was also employed for coupling of non-target proteins. Immobilization levels of 4000-10000 RU were obtained. Unmodified dextrane in one of the flow cells was used as reference surface.
(§3) The pyridinone was diluted from 10 mM DMSO stock solution to a final concentration of 30 μM in running buffer (6.7 mM phosphate buffer (9.6 g Na2HPO4.2H2O, 1.7 G KH2PO4, 4.1 g NaCl, 100 mL H2O), 3.4 mM EDTA, 0.01% TWEEN, 5% DMSO, pH 7.4) so that the concentrations of DMSO and buffer substances were carefully matched. The compounds were injected (flow rate was 30 μL/min at 25° C.) and the binding of the compounds to the immobilized chaperone proteins was observed on real time. The surface was regenerated by injection of 10 mM glycin.HCl, pH 2.0 and then washed with a 1:1 mixture of DMSO and water.
(§4) For screening of the affinity of the compounds of PapD and FimC, the pyridinone was injected (flow rate was 30 μL/min at 25° C.) at a concentration of 30 μM in triplicate. […]
as §3, with “KH2PO2PO4,” for “KH2PO4,”, “water. […]” for “water.”
(§5) A direct binding assay on BIACORE 3000 was employed to test the affinity of the following pyridinone: [drawing 76] for periplasmic chaperones PapD and FimC. Methods

The target in experiment [2] is periplasmic chaperone FimC (Escherichia coli, UniProt P31697). The experiment in a line: Direct binding assay on BIACORE 3000, immobilized FimC. The following applies: pyridinone 30 uM, 25° C., 30 μL/min, triplicate, Sensor Chip CM5. The procedure:
as §1, §2, §3, §4
as §3, with “KH2PO2PO4,” for “KH2PO4,”, “water. […]” for “water.”
as §5
On the technique in general: In SPR one partner is held on a chip, and binding of the other changes the refractive index at the surface.

The structures appear in SMILES notation.

Four molecules from patent publication US6841559B1, “Pyridinones to treat and prevent bacterial infections” (Washington University of St. Louis, priority 1999, dated 2005) can be followed below.

periplasmic chaperone PapD, sequence (P15319 22-239): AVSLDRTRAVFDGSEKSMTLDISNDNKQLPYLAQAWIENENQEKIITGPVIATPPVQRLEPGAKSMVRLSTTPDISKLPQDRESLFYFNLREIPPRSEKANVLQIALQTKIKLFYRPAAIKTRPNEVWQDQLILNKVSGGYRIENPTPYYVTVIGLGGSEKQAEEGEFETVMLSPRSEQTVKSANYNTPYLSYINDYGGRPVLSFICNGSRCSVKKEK
periplasmic chaperone FimC, sequence (P31697 37-241): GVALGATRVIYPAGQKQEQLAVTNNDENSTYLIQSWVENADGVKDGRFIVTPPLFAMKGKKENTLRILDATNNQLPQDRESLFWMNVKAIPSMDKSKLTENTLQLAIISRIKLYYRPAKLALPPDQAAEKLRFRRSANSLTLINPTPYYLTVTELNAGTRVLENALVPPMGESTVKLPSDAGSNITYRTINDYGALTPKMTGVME

As for `O=C(O)[C@@H]1CSc2cc(Cc3cccc4ccccc34)cc(=O)n21` [H_Pyr_COOH], in experiment [1], the “Response Units PapD 30 uM” value is reported as 6,760176162 Response Units. The “Response Units FimC 30 uM” value in experiment [2] is reported as 11,69075072 Response Units.
As for `Cc1cc(=O)n2c(c1C)SC[C@H]2C(=O)O` [Me_Me_Pyr_COOH], the “Response Units PapD 30 uM” value in experiment [1] was 1,676914034 Response Units. Moreover, the “Response Units FimC 30 uM” value in experiment [2] is listed as 6,535311642 Response Units.
On the same counts, the results for `Cc1cc(=O)n2c(c1-c1ccccc1)SC[C@H]2C(=O)O` [Me_Ph_Pyr_COOH] are 3,90056354 Response Units and 6,753367367 Response Units.
Turning to `O=C(O)[C@@H]1CSc2c(-c3ccccc3)c(Cc3cccc4ccccc34)cc(=O)n21` [Ph_Pyr_COOH], the “Response Units PapD 30 uM” value in experiment [1] is reported as 46,22397585 Response Units. Moreover, the “Response Units FimC 30 uM” value in experiment [2] is reported as 60,71350348 Response Units.
